The source of these data is EP0185020B1, “NI[…] PREPARATION THEREOF AND UTILIZATION THEREOF IN ANTICANCEROUS CHEMIOTHERAPY” (CENTRE NATIONAL DE LA RECHERCHE SCIENTIFIQUE (CNRS), priority 1984, dated 1985).

Series [1] in a line: Solubility in solvents allowing intravenous administration. In kind it is physicochemical. The settings on record: solvants autorisant l'administration par voie intraveineuse. The text has this:
Ont été administrés par voie intraveineuse (i.v.) dans la veine caudale, les mélanges A, A2 et B, B2 dans les proportions et aux doses utilisées dans a). La comparaison avec la CNCC pour cette voie d'administration est impossible en raison de l'insolubilité de ce composé dans les solvants autorisant l'administration par voie intraveineuse. Les résultats sont présentés sur le tableau III.

Series [2] has as its system leucémie L 1210 greffée i.p. Briefly: Antitumour activity on L1210 leukaemia grafted i.p. in mice, mixtures A1 A2 and B1 B2 (INSERM Unit 71, Example 12). The conditions noted are these: J1, J5, J9. In kind it is in vivo, souris B6D2F1/IFFA CREDO. From the text:
Au jour J: 0, des souris mâles B6D2F1 âgées de trois mois reçoivent par voie intrapéritonéale 10^5 cellules de la souche leucémique L 1210. Les animaux sont répartis en lots de 8 à 10 animaux pour les groupes témoins et de 6 à 8 animaux pour les groupes traités. Aux jours J : 1, J : 5, J : 9, les animaux reçoivent par voie intrapéritonéale ou intraveineuse le traitement à différentes doses. La CNCC est administrée en suspension dans l'huile d'olive. Les produits selon l'invention sont administrés dans du sérum physiologique. La mortalité est enregistrée tous les jours. La médiane de survie des animaux traités et des animaux témoins a été déterminée. Les résultats sont considérés comme positifs lorsque l'index I = [formula] est supérieur à 125.
La valeur ∞ signifie que 50 à 100% des animaux sont survivants au jour J : 90.
L'activité cytostatique sur la leucémie L 1210 des produits selon l'invention a été évaluée chez des souris B6D2F1/IFFA CREDO d'après le protocole précédemment décrit.
Ont été administrés par voie intrapéritonéale (i.p.) soit le mélange A, A2 dans les proportions suivantes A, (70%) et A2 (30%), soit le mélange B, B2 dans les mêmes proportions, soit la CNCC aux doses suivantes: 10 mg/kg, 20 mg/kg, 30 mg/kg, 40 mg/kg et 50 mg/kg. Les résultats sont présentés sur le tableau Il et appellent les commentaires suivants: • - très bonne efficacité du mélange A, A2 aux doses de 20 mg/kg, 30 mg/kg et 40 mg/kg et du mélange B, B2 aux doses de 20 mg/kg, 30 mg/kg, 40 mg/kg et 50 mg/kg. […] De plus, le nombre de survivants à 90 jours est plus grand chez les animaux ayant reçu les produits selon l'invention par rapport aux animaux ayant reçu la CNCC. […]

Series [3] relates to Mélano-carcinome B 16 (implanté en sous-cutané). On the set-up: key: N.S.: Non significatif; ∞: 50% en plus des animaux traités sont guéris. The conditions noted are these: Mélano-carcinome B 16 s.c., jours 1,5,9, cited from earlier work.
Series [4] concerns Carcinome pulmonaire de Lewis (implanté en sous-cutané). On the set-up: key: N.S.: Non significatif; ∞: 50% en plus des animaux traités sont guéris. The settings on record: jours 1,5,9, cited from earlier work.
The subject of series [5] is Fibrosarcome I.C.I.G. C1 (implanté en sous-cutané). On the set-up: key: N.S.: Non significatif; ∞: 50% en plus des animaux traités sont guéris. The conditions noted are these: jours 1,5,9, cited from earlier work.
Series [6] relates to Gliome 26 (implanté en sous-cutané). On the set-up: key: N.S.: Non significatif; ∞: 50% en plus des animaux traités sont guéris. The settings on record: Gliome 26 s.c., jours 1,5,9, cited from earlier work.
Series [7] relates to M 555 ovarienne (implanté en sous-cutané). The conditions noted are these: M 555 ovarienne s.c., jours 1,5,9, cited from earlier work.
The test system of series [8] is Adénocarcinome mammaire TM2 (implanté en sous-cutané). Set-up: key: N.S.: Non significatif; ∞: 50% en plus des animaux traités sont guéris. The conditions noted are these: jours 1,5,9, cited from earlier work.
The subject of series [9] is Carcinome du côlon (côlon 26) (implanté en sous-cutané). The settings on record: Carcinome du côlon (côlon 26) s.c., jours 1,5,9, cited from earlier work.
The subject of series [10] is Leucémie L 1210 (greffée par voie i.c.). Set-up: key: N.S.: Non significatif; ∞: 50% en plus des animaux traités sont guéris. The conditions noted are these: Leucémie L 1210 i.c., jours 1,5,9, cited from earlier work.

Where two headings read alike, the source gives them in different places.

Turning to `O=NN(CCCl)C(=O)NCCSSCCNC(=O)N(CCCl)N=O` [CNCC], in [1], the “solubilité, in words” value was “insolubilité”. Moreover, the “Nombre de survivants à 90 jours” value in [2] (10 mg/kg) is 0/6; in series [2] (20 mg/kg), 6/6; in series [2] (30 mg/kg), 6/6; in [2] (40 mg/kg), 3/6; in series [2] (50 mg/kg) it was 0/6. The “T/C × 100” value in series [2] (10 mg/kg) is 250; in [2] (20 mg/kg), “∞ (50 à 100% des animaux survivants à 90 jours)”; in series [2] (30 mg/kg), “∞ (50 à 100% des animaux survivants à 90 jours)”; in series [2] (40 mg/kg), “∞ (50 à 100% des animaux survivants à 90 jours)”; in series [2] (50 mg/kg), 125. The “Augmentation de la durée de survie (I.L.S.: T/C×100)” value (shortened to “Augmentation de la durée de survie”) was 200 in series [3] (30 mg/kg I.P.); “∞ (50% en plus des animaux traités sont guéris)” in series [4] (30 mg/kg I.P.); “N.S” in [5] (30 mg/kg I.P.); 200 in series [6] (30 mg/kg I.P.); over 254 in series [7] (30 mg/kg I.P.); 185 in series [8] (30 mg/kg I.P.). Also, the “Augmentation de la durée de survie” value in series [9] (30 mg/kg I.P.) and in series [10] (30 mg/kg I.P.) was “∞ (50% en plus des animaux traités sont guéris)” each time.
`O=NN(CCCl)C(=O)N[C@H]1C(O)O[C@H](CO)[C@@H](O)[C@@H]1O` (stereo partly drawn) [CHLOROZOTOCINE]: the “Augmentation de la durée de survie” value is “N.S” in series [3] (15 mg/kg I.P.); “N.S” in [4] (15 mg/kg I.P.); “∞ (50% en plus des animaux traités sont guéris)” in series [5] (15 mg/kg I.P.); “N.S” in [6] (15 mg/kg I.P.); “∞ (50% en plus des animaux traités sont guéris)” in series [7] (15 mg/kg I.P.); “N.S” in series [8] (15 mg/kg I.P.). The figures for the “Augmentation de la durée de survie” value in [9] (15 mg/kg I.P.) and in [10] (15 mg/kg I.P.) were “∞ (50% en plus des animaux traités sont guéris)” and “N.S”, respectively.
